Read-outs that look alike come from different tables or passages of the source.
Q: Which “pair theoritical value % Mean” value (N2-W (nitrogen-bubbled purified water), 4° C. 1 month) does the source give for `C[C@H]1C[C@H]2[C@@H]3CCC4=CC(=O)C=C[C@]4(C)[C@@]3(F)[C@@H](O)C[C@]2(C)[C@@]1(O)C(=O)COP(=O)([O-])[O-].[Na+].[Na+]` [betamethasone sodium phosphate] here?
A: Its value is 107.68%.

Q: And the “pair theoritical value % Mean” value (N2-W (nitrogen-bubbled purified water), 4° C. 2 weeks)?
A: Its value is 99.20%.

Q: What about the “pair theoritical value % Mean” value (N2-W (nitrogen-bubbled purified water), 4° C. 4 month) of the same molecule?
A: Its value is 100.06%.

Q: What about the “pair theoritical value % Mean” value (N2-W (nitrogen-bubbled purified water), 4° C. 6 month) of the same molecule?
A: Its value is 98.27%.

Q: What about the “pair theoritical value % Mean” value (N2-W (nitrogen-bubbled purified water), 40° C. 1 month) of the same molecule?
A: The value was 85.82%.

Q: And the “pair theoritical value % Mean” value (N2-W (nitrogen-bubbled purified water), 40° C. 4 month)?
A: The value was 100.30%.

Q: What about the “pair theoritical value % Mean” value (N2-W (nitrogen-bubbled purified water), 50° C. 1 month) of the same molecule?
A: Its value is 89.72%.

Q: And the “pair theoritical value % Mean” value (N2-W (nitrogen-bubbled purified water), 50° C. 4 month)?
A: The value was 77.62%.

Q: And the “pair theoritical value % Mean” value (N2-W (nitrogen-bubbled purified water), 60° C. 1 month)?
A: The value was 38.91%.

Q: What about the “pair theoritical value % Mean” value (N2-W (nitrogen-bubbled purified water), 60° C. 2 weeks) of the same molecule?
A: Its value is 91.76%.

Q: What about the “pair theoritical value % Mean” value (N2-W (nitrogen-bubbled purified water), 60° C. 4 month) of the same molecule?
A: The value was 41.97%.

Q: What about the “pair theoritical value % Mean” value (W (purified water), 4° C. 1 month) of the same molecule?
A: Its value is 101.42%.

Q: What about the “pair theoritical value % Mean” value (W (purified water), 4° C. 2 weeks) of the same molecule?
A: Its value is 101.05%.

Q: What about the “pair theoritical value % Mean” value (W (purified water), 4° C. 4 month) of the same molecule?
A: The value was 110.24%.

Q: And the “pair theoritical value % Mean” value (W (purified water), 4° C. 6 month)?
A: The value was 98.01%.

Q: And the “pair theoritical value % Mean” value (W (purified water), 40° C. 1 month)?
A: Its value is 96.79%.

Q: And the “pair theoritical value % Mean” value (W (purified water), 40° C. 4 month)?
A: The value was 100.99%.

Q: And the “pair theoritical value % Mean” value (W (purified water), 50° C. 1 month)?
A: Its value is 78.74%.

Q: And the “pair theoritical value % Mean” value (W (purified water), 50° C. 4 month)?
A: Its value is 70.87%.

Q: What about the “pair theoritical value % Mean” value (W (purified water), 60° C. 1 month) of the same molecule?
A: The value was 33.60%.

Q: And the “pair theoritical value % Mean” value (W (purified water), 60° C. 2 weeks)?
A: Its value is 85.69%.

Q: What about the “pair theoritical value % Mean” value (W (purified water), 60° C. 4 month) of the same molecule?
A: The value was 17.67%.

Q: And the “pair theoritical value % Mean” value (pH 2, 4° C. 1 month)?
A: Its value is 81.61%.

Q: And the “pair theoritical value % Mean” value (pH 2, 4° C. 2 weeks)?
A: The value was 75.50%.

Q: And the “pair theoritical value % Mean” value (pH 2, 4° C. 4 month)?
A: Its value is 121.42%.

Q: What about the “pair theoritical value % Mean” value (pH 2, 40° C. 1 month) of the same molecule?
A: The value was 62.65%.

Q: What about the “pair theoritical value % Mean” value (pH 2, 40° C. 4 month) of the same molecule?
A: The value was 57.15%.

Q: What about the “pair theoritical value % Mean” value (pH 2, 40° C. 6 month) of the same molecule?
A: Its value is 33.20%.

Q: And the “pair theoritical value % Mean” value (pH 2, 50° C. 1 month)?
A: The value was 55.83%.

Q: And the “pair theoritical value % Mean” value (pH 2, 50° C. 4 month)?
A: The value was 22.44%.

Q: What about the “pair theoritical value % Mean” value (pH 2, 60° C. 1 month) of the same molecule?
A: Its value is 14.90%.

Q: What about the “pair theoritical value % Mean” value (pH 2, 60° C. 2 weeks) of the same molecule?
A: Its value is 42.03%.

Q: What about the “pair theoritical value % Mean” value (pH 2, 60° C. 4 month) of the same molecule?
A: Its value is 2.79%.

Q: And the “pair theoritical value % Mean” value (pH 3, 4° C. 1 month)?
A: The value was 82.46%.

Q: And the “pair theoritical value % Mean” value (pH 3, 4° C. 2 weeks)?
A: The value was 85.23%.

Q: What about the “pair theoritical value % Mean” value (pH 3, 4° C. 4 month) of the same molecule?
A: Its value is 104.26%.

Q: What about the “pair theoritical value % Mean” value (pH 3, 40° C. 1 month) of the same molecule?
A: The value was 82.48%.

Q: What about the “pair theoritical value % Mean” value (pH 3, 40° C. 4 month) of the same molecule?
A: The value was 73.33%.

Q: And the “pair theoritical value % Mean” value (pH 3, 40° C. 6 month)?
A: The value was 50.00%.

Q: What about the “pair theoritical value % Mean” value (pH 3, 50° C. 1 month) of the same molecule?
A: The value was 64.66%.

Q: And the “pair theoritical value % Mean” value (pH 3, 50° C. 4 month)?
A: The value was 32.84%.

Q: And the “pair theoritical value % Mean” value (pH 3, 60° C. 1 month)?
A: Its value is 17.55%.

Q: And the “pair theoritical value % Mean” value (pH 3, 60° C. 2 weeks)?
A: Its value is 50.37%.

Q: What about the “pair theoritical value % Mean” value (pH 3, 60° C. 4 month) of the same molecule?
A: Its value is 3.46%.

Q: And the “pair theoritical value % Mean” value (pH 4, 4° C. 1 month)?
A: The value was 95.85%.

Q: What about the “pair theoritical value % Mean” value (pH 4, 4° C. 2 weeks) of the same molecule?
A: The value was 89.42%.

Q: And the “pair theoritical value % Mean” value (pH 4, 4° C. 4 month)?
A: Its value is 108.15%.

Q: And the “pair theoritical value % Mean” value (pH 4, 4° C. 6 month)?
A: Its value is 81.32%.

Q: And the “pair theoritical value % Mean” value (pH 4, 40° C. 1 month)?
A: The value was 81.36%.

Q: And the “pair theoritical value % Mean” value (pH 4, 40° C. 4 month)?
A: Its value is 77.80%.

Q: And the “pair theoritical value % Mean” value (pH 4, 40° C. 6 month)?
A: Its value is 53.22%.

Q: And the “pair theoritical value % Mean” value (pH 4, 50° C. 1 month)?
A: Its value is 63.08%.

Q: And the “pair theoritical value % Mean” value (pH 4, 50° C. 4 month)?
A: Its value is 31.80%.

Q: And the “pair theoritical value % Mean” value (pH 4, 60° C. 1 month)?
A: Its value is 19.17%.

Q: And the “pair theoritical value % Mean” value (pH 4, 60° C. 2 weeks)?
A: The value was 52.38%.

Q: What about the “pair theoritical value % Mean” value (pH 4, 60° C. 4 month) of the same molecule?
A: The value was 3.38%.

Q: What about the “pair theoritical value % Mean” value (pH 5, 4° C. 1 month) of the same molecule?
A: The value was 93.36%.

Q: And the “pair theoritical value % Mean” value (pH 5, 4° C. 2 weeks)?
A: Its value is 94.34%.

Q: And the “pair theoritical value % Mean” value (pH 5, 4° C. 4 month)?
A: Its value is 109.24%.

Q: What about the “pair theoritical value % Mean” value (pH 5, 4° C. 6 month) of the same molecule?
A: Its value is 90.85%.

Q: What about the “pair theoritical value % Mean” value (pH 5, 40° C. 1 month) of the same molecule?
A: The value was 78.88%.

Q: And the “pair theoritical value % Mean” value (pH 5, 40° C. 4 month)?
A: The value was 82.09%.

Q: And the “pair theoritical value % Mean” value (pH 5, 50° C. 1 month)?
A: The value was 75.05%.

Q: What about the “pair theoritical value % Mean” value (pH 5, 50° C. 4 month) of the same molecule?
A: Its value is 32.88%.

Q: And the “pair theoritical value % Mean” value (pH 5, 60° C. 1 month)?
A: The value was 17.09%.

Q: What about the “pair theoritical value % Mean” value (pH 5, 60° C. 2 weeks) of the same molecule?
A: Its value is 56.51%.

Q: And the “pair theoritical value % Mean” value (pH 5, 60° C. 4 month)?
A: The value was 3.34%.

Q: And the “pair theoritical value % Mean” value (pH 6, 4° C. 1 month)?
A: The value was 104.98%.

Q: What about the “pair theoritical value % Mean” value (pH 6, 4° C. 2 weeks) of the same molecule?
A: Its value is 98.90%.

Q: And the “pair theoritical value % Mean” value (pH 6, 4° C. 4 month)?
A: Its value is 107.46%.

Q: What about the “pair theoritical value % Mean” value (pH 6, 4° C. 6 month) of the same molecule?
A: The value was 97.60%.

Q: And the “pair theoritical value % Mean” value (pH 6, 40° C. 1 month)?
A: The value was 86.51%.

Q: What about the “pair theoritical value % Mean” value (pH 6, 40° C. 4 month) of the same molecule?
A: The value was 89.24%.

Q: What about the “pair theoritical value % Mean” value (pH 6, 50° C. 1 month) of the same molecule?
A: The value was 75.38%.

Q: What about the “pair theoritical value % Mean” value (pH 6, 50° C. 4 month) of the same molecule?
A: The value was 41.48%.

Q: What about the “pair theoritical value % Mean” value (pH 6, 60° C. 1 month) of the same molecule?
A: The value was 25.28%.

Q: What about the “pair theoritical value % Mean” value (pH 6, 60° C. 2 weeks) of the same molecule?
A: The value was 69.99%.

Q: What about the “pair theoritical value % Mean” value (pH 6, 60° C. 4 month) of the same molecule?
A: The value was 5.85%.

Q: What about the “pair theoritical value % Mean” value (pH 7, 4° C. 1 month) of the same molecule?
A: The value was 110.30%.

Q: What about the “pair theoritical value % Mean” value (pH 7, 4° C. 2 weeks) of the same molecule?
A: The value was 100.23%.

Q: And the “pair theoritical value % Mean” value (pH 7, 4° C. 4 month)?
A: Its value is 105.27%.

Q: And the “pair theoritical value % Mean” value (pH 7, 4° C. 6 month)?
A: The value was 101.38%.

Q: What about the “pair theoritical value % Mean” value (pH 7, 40° C. 1 month) of the same molecule?
A: Its value is 89.32%.

Q: And the “pair theoritical value % Mean” value (pH 7, 40° C. 4 month)?
A: Its value is 102.71%.

Q: What about the “pair theoritical value % Mean” value (pH 7, 50° C. 1 month) of the same molecule?
A: The value was 86.96%.

Q: And the “pair theoritical value % Mean” value (pH 7, 50° C. 4 month)?
A: The value was 66.49%.

Q: What about the “pair theoritical value % Mean” value (pH 7, 60° C. 1 month) of the same molecule?
A: The value was 36.13%.

Q: What about the “pair theoritical value % Mean” value (pH 7, 60° C. 2 weeks) of the same molecule?
A: The value was 87.22%.

Q: And the “pair theoritical value % Mean” value (pH 7, 60° C. 4 month)?
A: The value was 25.71%.

Q: And the “pair theoritical value % Mean” value (pH 8, 4° C. 1 month)?
A: Its value is 97.51%.

Q: What about the “pair theoritical value % Mean” value (pH 8, 4° C. 2 weeks) of the same molecule?
A: Its value is 104.91%.

Q: What about the “pair theoritical value % Mean” value (pH 8, 4° C. 4 month) of the same molecule?
A: The value was 108.32%.

Q: And the “pair theoritical value % Mean” value (pH 8, 4° C. 6 month)?
A: Its value is 103.29%.

Q: And the “pair theoritical value % Mean” value (pH 8, 40° C. 1 month)?
A: Its value is 90.10%.

Q: What about the “pair theoritical value % Mean” value (pH 8, 40° C. 4 month) of the same molecule?
A: The value was 106.12%.

Q: What about the “pair theoritical value % Mean” value (pH 8, 50° C. 1 month) of the same molecule?
A: The value was 103.57%.

Q: And the “pair theoritical value % Mean” value (pH 8, 50° C. 4 month)?
A: The value was 83.79%.

Q: What about the “pair theoritical value % Mean” value (pH 8, 60° C. 1 month) of the same molecule?
A: The value was 45.01%.

Q: And the “pair theoritical value % Mean” value (pH 8, 60° C. 2 weeks)?
A: Its value is 95.80%.

Q: What about the “pair theoritical value % Mean” value (pH 8, 60° C. 4 month) of the same molecule?
A: The value was 61.99%.

Reference: patent US8652522B2, “Pharmaceutical composition of an iontophoresis” (Teikoku Seiyaku Co., Ltd., priority 2009, dated 2014)
